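Exposure lasted 48 hours, with cells grown in 96-well plates and compounds tested at five concentrations. GI50 = concentration required for 50% inhibition of growth.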 The source made the active and inactive calls. No stated cut-off is given here; in the data, active = GI50 up to about 1.1 µM and inactive = higher.
Tests used:
Test in all cases: NCI tumour cell line growth inhibition, 48 h
COLO 205 = tested on: COLO 205
CAKI-1 = tested on: CAKI-1
UO-31 = tested on: UO-31
HCT-116 = tested on: HCT-116
LOX IMVI = tested on: LOX IMVI
NCI-H522 = tested on: NCI-H522
OVCAR-3 = tested on: OVCAR-3
Malme-3M = tested on: Malme-3M
SF-268 = tested on: SF-268
CCRF-CEM = tested on: CCRF-CEM
RPMI-8226 = tested on: RPMI-8226
NCI-H23 = tested on: NCI-H23
ACHN = tested on: ACHN
OVCAR-8 = tested on: OVCAR-8
KM12 = tested on: KM12
MDA-MB-435 = tested on: MDA-MB-435
MDA-MB-231 = tested on: MDA-MB-231
T47D = tested on: T47D
NCI/ADR-RES = tested on: NCI/ADR-RES

| Structure (SMILES) | GI50 (COLO 205) | GI50 (CAKI-1) | GI50 (UO-31) | GI50 (HCT-116) | GI50 (LOX IMVI) | GI50 (NCI-H522) | GI50 (OVCAR-3) | GI50 (Malme-3M) | GI50 (SF-268) | GI50 (CCRF-CEM) | GI50 (RPMI-8226) | GI50 (NCI-H23) | GI50 (ACHN) | GI50 (OVCAR-8) | GI50 (KM12) | GI50 (MDA-MB-435) | GI50 (MDA-MB-231) | GI50 (T47D) | GI50 (NCI/ADR-RES) |
| --- | --- | --- | --- | --- | --- | --- | --- | --- | --- | --- | --- | --- | --- | --- | --- | --- | --- | --- | --- |
| COC(=O)C(=O)C(C#N)c1cccc(Cl)c1 (stereo unspecified) | > 100 µM (inactive) | > 100 µM (inactive) | > 100 µM (inactive) | > 100 µM (inactive) | > 100 µM (inactive) | > 100 µM (inactive) | > 100 µM (inactive) | > 100 µM (inactive) | > 100 µM (inactive) | > 100 µM (inactive) | > 100 µM (inactive) | > 100 µM (inactive) | > 100 µM (inactive) | > 100 µM (inactive) | > 100 µM (inactive) | – | – | – | – |
| Cn1c2c(c3ccccc31)CCN1C(=O)C3SC21C1C(=O)N(c2ccccc2)C(=O)C31 (stereo unspecified) | 41.8 µM (inactive) | > 100 µM (inactive) | > 100 µM (inactive) | > 100 µM (inactive) | > 100 µM (inactive) | > 100 µM (inactive) | > 100 µM (inactive) | > 100 µM (inactive) | > 100 µM (inactive) | – | 38.1 µM (inactive) | > 100 µM (inactive) | 33 µM (inactive) | > 100 µM (inactive) | > 100 µM (inactive) | > 100 µM (inactive) | > 100 µM (inactive) | > 100 µM (inactive) | > 100 µM (inactive) |
| CCOc1ccc(O)cc1[P+](c1ccccc1)(c1ccccc1)c1ccccc1 | 2.86 µM (inactive) | 8.24 µM (inactive) | 17.4 µM (inactive) | 2.19 µM (inactive) | 2.59 µM (inactive) | 1.14 µM (inactive) | 0.804 µM (active) | 3.65 µM (inactive) | 5.2 µM (inactive) | 1.56 µM (inactive) | 3.5 µM (inactive) | 1.67 µM (inactive) | 16.2 µM (inactive) | 3.42 µM (inactive) | 1.64 µM (inactive) | – | – | – | – |
| CN1CCN(C)C12C=CC=CC21CC1 | > 100 µM (inactive) | > 100 µM (inactive) | > 100 µM (inactive) | > 100 µM (inactive) | > 100 µM (inactive) | > 100 µM (inactive) | > 100 µM (inactive) | > 100 µM (inactive) | > 100 µM (inactive) | > 100 µM (inactive) | > 100 µM (inactive) | > 100 µM (inactive) | > 100 µM (inactive) | > 100 µM (inactive) | > 100 µM (inactive) | – | – | – | – |
| CN(C)c1nc(N(C)C)nc(N(C)CN(C)c2nc(N(C)C)nc(N(C)C)n2)n1 | > 100 µM (inactive) | > 100 µM (inactive) | > 100 µM (inactive) | > 100 µM (inactive) | > 100 µM (inactive) | 76.9 µM (inactive) | > 100 µM (inactive) | > 100 µM (inactive) | > 100 µM (inactive) | > 100 µM (inactive) | > 100 µM (inactive) | > 100 µM (inactive) | > 100 µM (inactive) | > 100 µM (inactive) | > 100 µM (inactive) | – | – | – | – |
| O[C@]12CCCC[C@H]1CCC2 | > 100 µM (inactive) | > 100 µM (inactive) | > 100 µM (inactive) | > 100 µM (inactive) | > 100 µM (inactive) | > 100 µM (inactive) | > 100 µM (inactive) | > 100 µM (inactive) | > 100 µM (inactive) | > 100 µM (inactive) | > 100 µM (inactive) | > 100 µM (inactive) | > 100 µM (inactive) | > 100 µM (inactive) | > 100 µM (inactive) | – | – | – | – |
| CC1=C(N(C)C)C(=O)c2nc3n(c2C1=O)CCC3OC(N)=O (stereo unspecified) | 18 µM (inactive) | 18.5 µM (inactive) | 17.3 µM (inactive) | 15.4 µM (inactive) | 10.9 µM (inactive) | 15.2 µM (inactive) | 16.8 µM (inactive) | 11.2 µM (inactive) | 20.1 µM (inactive) | 15.1 µM (inactive) | 16.9 µM (inactive) | 13.8 µM (inactive) | 16.7 µM (inactive) | 16.7 µM (inactive) | 17.2 µM (inactive) | – | – | – | – |
| Cc1ccc2c(O)cc(-c3cccc(Cl)c3)nc2n1 | 0.0308 µM (active) | 0.0415 µM (active) | 0.902 µM (active) | < 0.016 µM (active) | 0.024 µM (active) | < 0.01 µM (active) | < 0.01 µM (active) | 0.0661 µM (active) | 0.59 µM (active) | < 0.0238 µM (active) | < 0.0212 µM (active) | 0.272 µM (active) | 0.313 µM (active) | 0.115 µM (active) | < 0.0196 µM (active) | < 0.01 µM (active) | 0.0537 µM (active) | – | 0.0411 µM (active) |
| Cc1c2ccncc2c(C)c2c1[nH]c1ccc(Oc3ccccc3)cc12 | 2.52 µM (inactive) | 3.61 µM (inactive) | 11 µM (inactive) | 2.56 µM (inactive) | 1.93 µM (inactive) | 2.37 µM (inactive) | 2.46 µM (inactive) | 1.79 µM (inactive) | 3.39 µM (inactive) | 2.17 µM (inactive) | 1.88 µM (inactive) | 11.6 µM (inactive) | 3.11 µM (inactive) | 2.03 µM (inactive) | 2.6 µM (inactive) | – | – | – | – |

Source: ChEMBL document CHEMBL1201862, “PubChem BioAssay data set” (2004)
